Test results taken from patent US9464075B2 (priority 2008, dated 2016).
Read-outs that look alike come from different tables or passages of the source.

How the values were obtained:
[1] = molecular target: A/M2 channels (Influenza virus A/Udorn/72 A/M2 protein) (Influenza A virus, UniProt P0DOF5); test: cell-based; details: for activity at 100 µM: read-out: AM2 channel activity after 100 μM compound inhibition
A/M2TM (22-46) = A/M2TM (22-46) (Influenza A virus, UniProt P0DOF5); test: biochemical; format: binding
Chain of A/M2TM (22-46) (P0DOF5 22-46 limits assumed): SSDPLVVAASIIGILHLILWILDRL

AM2 = AM2 (Influenza A virus, UniProt P0DOF5); test: cell-based; details: read-out: AM2 % inhibition at 100 μM
Chain of AM2 (P0DOF5 whole entry): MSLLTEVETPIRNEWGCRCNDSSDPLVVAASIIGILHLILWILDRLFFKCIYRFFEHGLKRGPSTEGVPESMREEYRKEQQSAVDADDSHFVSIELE

Chain of A/M2 channels (Influenza virus A/Udorn/72 A/M2 protein) (P0DOF5 whole entry, looked up): as the sequence (P0DOF5 whole entry) above

| SMILES | activity at 100 µM [1] [%] | inhibition at 100 µM (AM2) [%] | further results |
| --- | --- | --- | --- |
| NC12CC3CC(CC(C3)C1)C2 [Amantadine, reference compound] | 6 |  |  |
| C1CCC2(CC1)CCN(C1=NCCN1)CC2 [BL-1743, 3-(4,5-Dihydro-1H-imidazol-2-yl)-3-aza-spiro[5.5]undecane, reference compound] | 25 |  | IC50 [1]: 45.3 ± 3.92 µM; Kd (A/M2TM (22-46)): 194 µM |
| Cl.NC1CCC2(CCCCC2)CC1 [Compound 8] |  |  | AM2 channel activity after 100 μM compound inhibition [1]: 11% |
| c1nc(NC2CCC3(CCCCC3)CC2)n[nH]1 [Compound 11, Spiro[5.5]undec-3-yl-(1H-[1,2,4]triazol-3-yl)-amine] | 25 |  |  |
| NCCNC1CCC2(CCCCC2)CC1 [Compound 12, N^1-Spiro[5.5]undec-3-yl-ethane-1,2-diamine] | 100 |  |  |
| NCCCNC1CCC2(CCCCC2)CC1 [Compound 13, N^1-Spiro[5.5]undec-3-yl-propane-1,3-diamine] | 100 |  |  |
| c1nc(CNCCNC2CCC3(CCCCC3)CC2)c[nH]1 [Compound 14, N-(1H-Imidazol-4-ylmethyl)-N′-spiro[5.5]undec-3-yl-ethane-1,2-diamine] | 91 |  |  |
| OC1(c2cnc[nH]2)CCC2(CCCCC2)CC1 [Compound 15] | 40 |  |  |
| OC(c1c[nH]cn1)C1CCC2(CCCCC2)CC1 (stereo not shown) [Compound 18] | 30 |  |  |
| C1CCC2(CC1)CCNCC2 [Compound 20, 3-Aza-spiro[5.5]undecane, reference compound] | 5 |  | IC50 [1]: 0.92 ± 0.11 µM; Kd (A/M2TM (22-46); read-out: Kd): 12.9 µM |
| NN1C(=O)CC2(CCCCC2)CC1=O [Compound 28, 3-Amino-3-aza-spiro[5.5]undecane-2,4-dione] |  | 29 |  |
| NN1CCC2(CCCCC2)CC1 [Compound 29, 3-Aza-spiro[5.5]undec-3-yl-ammonium chloride] |  | 86 |  |
| C1CCC2(CC1)CCCNCC2 [Compound 30, 9-Azonia-spiro[5.6]dodecane chloride] |  | 94 |  |
| Cl.NNC1CCC2(CCCCC2)CC1 [Compound 31, N′-Spiro[5.5]undec-3-yl-hydrazinium chloride] |  | 78.8 |  |
| CCC1(CC)CCc2nc(N)sc2C1 [Compound 32, 6,6-Diethyl-4,5,6,7-tetrahydro-benzothiazol-2-ylamine] |  | 32 |  |
| Cl.NC1CSC2(CCCCC2)SC1 [Compound 33, 1,5-Dithia-spiro[5.5]undec-3-yl-ammonium chloride] |  | 84.2 |  |
| NC1CSC2(CCCCCC2)SC1 [Compound 34, 1,5-Dithia-spiro[5.6]dodec-3-yl-ammonium chloride] |  | 84.1 |  |
| N=C(N)NC1CCC2(CCCCC2)CC1 [Compound 35] |  | 92 |  |
